Counter-ions that a name gives are not always drawn.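 How tested: cells in 96-well plates exposed to compound for 48 hours at five concentrations. Here, GI50 denotes the concentration required for 50% inhibition of growth.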 The source made the active and inactive calls. Cut-off read from the data, not from the text of the source: active = GI50 up to about 1.1 µM and inactive = higher.
How the values were obtained:
Assay in all cases: inhibition of tumour cell growth, NCI panel, 48 h
A549 = system: A549
CAKI-1 = system: CAKI-1
CCRF-CEM = system: CCRF-CEM
DU-145 = system: DU-145
EKVX = system: EKVX
Hs-578T = system: Hs-578T
M14 = system: M14
MCF7 = system: MCF7
MOLT-4 = system: MOLT-4
NCI-H226 = system: NCI-H226
NCI-H23 = system: NCI-H23
NCI-H522 = system: NCI-H522
NCI/ADR-RES = system: NCI/ADR-RES
OVCAR-5 = system: OVCAR-5
OVCAR-8 = system: OVCAR-8
SK-MEL-2 = system: SK-MEL-2
SNB-75 = system: SNB-75
SW-620 = system: SW-620
U-251 = system: U-251
LXFL 529 = system: LXFL 529

SMILES | GI50 (A549) | GI50 (CAKI-1) | GI50 (CCRF-CEM) | GI50 (DU-145) | GI50 (EKVX) | GI50 (Hs-578T) | GI50 (M14) | GI50 (MCF7) | GI50 (MOLT-4) | GI50 (NCI-H226) | GI50 (NCI-H23) | GI50 (NCI-H522) | GI50 (NCI/ADR-RES) | GI50 (OVCAR-5) | GI50 (OVCAR-8) | GI50 (SK-MEL-2) | GI50 (SNB-75) | GI50 (SW-620) | GI50 (U-251) | GI50 (LXFL 529)
c1ccc2c3c(c(N4CCOCC4)nc2c1)CCCC3 | 43.1 µM (inactive) | 64.7 µM (inactive) | 31.9 µM (inactive) | 33.3 µM (inactive) | 12.5 µM (inactive) | 76.6 µM (inactive) | 50.7 µM (inactive) | 29.5 µM (inactive) | 30 µM (inactive) | 19.6 µM (inactive) | 56.5 µM (inactive) | 29.7 µM (inactive) | 29.9 µM (inactive) | 15.1 µM (inactive) | 57.5 µM (inactive) | 42.8 µM (inactive) | 15.4 µM (inactive) | 43.8 µM (inactive) | 36.6 µM (inactive) | 
COc1ccc2oc(C(=O)O)c3c2c1CCC3CCC(=O)O (stereo not drawn) | > 100 µM (inactive) |  | > 100 µM (inactive) |  | > 100 µM (inactive) |  |  |  | > 100 µM (inactive) |  | > 100 µM (inactive) | > 100 µM (inactive) |  | > 100 µM (inactive) | > 100 µM (inactive) | > 100 µM (inactive) | > 100 µM (inactive) | > 100 µM (inactive) | > 100 µM (inactive) | > 100 µM (inactive)
CCCCNC(=O)C1C2CCC(O2)C1C(=O)O (stereo not drawn) | 31 µM (inactive) |  |  |  | 13.7 µM (inactive) |  | 14.2 µM (inactive) |  | 18.1 µM (inactive) | 19 µM (inactive) | 29.4 µM (inactive) | 18.9 µM (inactive) |  | > 100 µM (inactive) | 20.5 µM (inactive) | 27.5 µM (inactive) | 16.8 µM (inactive) | 1.71 µM (inactive) | 13.6 µM (inactive) | 16 µM (inactive)
CCCCCCCCCCC/C(=N/O)c1ccc(O)c2ncccc12 | 5.69 µM (inactive) | 3.16 µM (inactive) |  |  | 3.52 µM (inactive) |  | 1.76 µM (inactive) |  |  | 3.22 µM (inactive) | 10.4 µM (inactive) | 2.31 µM (inactive) |  | 3.15 µM (inactive) | 4.29 µM (inactive) | 2.4 µM (inactive) | 2.52 µM (inactive) | 3.86 µM (inactive) | 4.48 µM (inactive) | 2.23 µM (inactive)
CC(C)CCC/C(CBr)=C(\Cl)CCl | 15.7 µM (inactive) | 5.06 µM (inactive) | 0.123 µM (active) | 5.52 µM (inactive) | 16.6 µM (inactive) | 2.45 µM (inactive) | 1.93 µM (inactive) | 4.08 µM (inactive) | 0.653 µM (active) | 7.89 µM (inactive) | 2.4 µM (inactive) | 0.15 µM (active) | 3.27 µM (inactive) | 15.1 µM (inactive) | 1.56 µM (inactive) | 1.46 µM (inactive) | 1.95 µM (inactive) | 1.5 µM (inactive) | 4.04 µM (inactive) | 
Cn1c2c(c3c(=O)[nH]ncc31)Cc1ccccc1-2 | 6.56 µM (inactive) | 13.3 µM (inactive) | 9.1 µM (inactive) | 10.6 µM (inactive) | 22.7 µM (inactive) | 26.5 µM (inactive) | 15.6 µM (inactive) | 11.5 µM (inactive) | 3.45 µM (inactive) | 13.8 µM (inactive) | 24.3 µM (inactive) | 17.8 µM (inactive) | 16 µM (inactive) | 31.1 µM (inactive) | 11.7 µM (inactive) | 21.3 µM (inactive) | 16.1 µM (inactive) | 7.24 µM (inactive) | 13.5 µM (inactive) | 
CSc1nc2c(nc(N)n2C2OCC(O)C(O)C2O)c(=O)n1C (stereo not drawn) | > 100 µM (inactive) | > 100 µM (inactive) | > 100 µM (inactive) |  | > 100 µM (inactive) |  | > 100 µM (inactive) |  | > 100 µM (inactive) | > 100 µM (inactive) | > 100 µM (inactive) | > 100 µM (inactive) |  |  | > 100 µM (inactive) |  | > 100 µM (inactive) | > 100 µM (inactive) | > 100 µM (inactive) | > 100 µM (inactive)
O=C(Cc1ccccc1)Oc1ccc2c(-c3ccccc3)c(C(=O)Nc3ccc(Cl)cc3)c(=O)oc2c1 | > 100 µM (inactive) | > 100 µM (inactive) | > 100 µM (inactive) |  | > 100 µM (inactive) |  | > 100 µM (inactive) |  | > 100 µM (inactive) | > 100 µM (inactive) | > 100 µM (inactive) | > 100 µM (inactive) |  | > 100 µM (inactive) | > 100 µM (inactive) |  | > 100 µM (inactive) | > 100 µM (inactive) | > 100 µM (inactive) | > 100 µM (inactive)
Fc1cccc(C2SCc3nc4ccccc4n32)c1F (stereo not drawn) | 69 µM (inactive) | 59.4 µM (inactive) | 42 µM (inactive) |  | 36.6 µM (inactive) |  | 62.4 µM (inactive) |  | 21.1 µM (inactive) | 41.6 µM (inactive) | 49.7 µM (inactive) | 37.2 µM (inactive) |  | > 100 µM (inactive) | 69.3 µM (inactive) | 7.52 µM (inactive) | > 100 µM (inactive) | > 100 µM (inactive) | 82.8 µM (inactive) | 40.9 µM (inactive)
O=C(Nc1cc(Cl)c(Cl)cc1Cl)C(=O)C(C(=O)c1ccc2ccccc2c1)C1OC(=O)c2ccccc21 (stereo not drawn) | 19.1 µM (inactive) | > 10 µM (inactive) |  |  | 15.4 µM (inactive) |  | 21.8 µM (inactive) |  |  | 2.65 µM (inactive) | 3.66 µM (inactive) | 12 µM (inactive) |  | 16.5 µM (inactive) | 8 µM (inactive) | 14.4 µM (inactive) |  | 10.8 µM (inactive) | 4.47 µM (inactive) | 10.6 µM (inactive)
CCCCCCCCCCCCC(O)C1CCC(C(O)CCCCCCC(O)CCCCCCCC2=CC(C)OC2=O)O1 (stereo not drawn) | 4.23 µM (inactive) | 24.9 µM (inactive) | 3.1 µM (inactive) | > 10 µM (inactive) | 1.71 µM (inactive) | 4.4 µM (inactive) | 19.2 µM (inactive) | 0.745 µM (active) | 7.29 µM (inactive) | 48.2 µM (inactive) | 0.0109 µM (active) | 16.5 µM (inactive) | 1.84 µM (inactive) | > 10 µM (inactive) | 36.6 µM (inactive) | 24.6 µM (inactive) | 5.58 µM (inactive) | 8.3 µM (inactive) | 61.9 µM (inactive) | 
Cc1ccc(S(=O)(=O)c2c(N)c3nccn3c3nc4ccccc4nc23)cc1 | > 100 µM (inactive) | > 100 µM (inactive) | > 100 µM (inactive) |  | > 100 µM (inactive) |  | > 100 µM (inactive) |  | > 100 µM (inactive) |  | > 100 µM (inactive) | > 100 µM (inactive) |  | > 100 µM (inactive) | > 100 µM (inactive) | > 100 µM (inactive) | 7.85 µM (inactive) | > 100 µM (inactive) | > 100 µM (inactive) | > 100 µM (inactive)
O=C(Cc1ccccc1)C(c1ccccc1)S(=O)(=O)c1ccccc1 (stereo not drawn) | 59.4 µM (inactive) | > 100 µM (inactive) | > 100 µM (inactive) |  | > 100 µM (inactive) |  | > 100 µM (inactive) |  | > 100 µM (inactive) | > 100 µM (inactive) | 77.4 µM (inactive) | 88.7 µM (inactive) |  | > 100 µM (inactive) | > 100 µM (inactive) | > 100 µM (inactive) | 23 µM (inactive) | > 100 µM (inactive) | > 100 µM (inactive) | 87.1 µM (inactive)
COC(=O)CC(=O)C[P+](c1ccccc1)(c1ccccc1)c1ccccc1 | 197 µM (inactive) | > 218 µM (inactive) | 55.3 µM (inactive) |  | > 218 µM (inactive) |  |  |  | 74 µM (inactive) | 180 µM (inactive) | 141 µM (inactive) | 37.7 µM (inactive) |  |  | 150 µM (inactive) | > 218 µM (inactive) |  | 121 µM (inactive) | > 218 µM (inactive) | 89.9 µM (inactive)
CCOC(=O)NN1C(=O)C(=P(c2ccccc2)(c2ccccc2)c2ccccc2)C(C(=O)OCC)=C1C | > 100 µM (inactive) | > 100 µM (inactive) | > 100 µM (inactive) |  | > 100 µM (inactive) |  | > 100 µM (inactive) |  | > 100 µM (inactive) | > 100 µM (inactive) | > 100 µM (inactive) | > 100 µM (inactive) |  | > 100 µM (inactive) | > 100 µM (inactive) | > 100 µM (inactive) | > 100 µM (inactive) | > 100 µM (inactive) | > 100 µM (inactive) | > 100 µM (inactive)
C[n+]1c(-c2ccc(/C=C/C=N\NC(=O)c3ccc(C(=O)N/N=C\C=C\c4ccc(-c5cn6ccccc6[n+]5C)cc4)cc3)cc2)cn2ccccc21 | 74.1 µM (inactive) | 38.7 µM (inactive) | 23.9 µM (inactive) | > 54.3 µM (inactive) | > 100 µM (inactive) | > 100 µM (inactive) | > 100 µM (inactive) | > 94.8 µM (inactive) | 43.6 µM (inactive) | > 100 µM (inactive) | 71.4 µM (inactive) | > 100 µM (inactive) | > 100 µM (inactive) | > 100 µM (inactive) | > 100 µM (inactive) | > 100 µM (inactive) | > 100 µM (inactive) | > 100 µM (inactive) | 44.7 µM (inactive) | 
N=C(N)c1ccc(-c2ccc(-c3ccc(C(=N)N)cc3)o2)cc1 [FURAMIDINE HYDROCHLORIDE] | 34.2 µM (inactive) | 54.3 µM (inactive) | 24.9 µM (inactive) | 32.7 µM (inactive) | 28.4 µM (inactive) | 21.4 µM (inactive) | 25.1 µM (inactive) | 17.5 µM (inactive) | 27.4 µM (inactive) | 69.2 µM (inactive) | 22 µM (inactive) | 24.8 µM (inactive) | 31.3 µM (inactive) | 18.9 µM (inactive) | 33.7 µM (inactive) | 23.8 µM (inactive) | 42 µM (inactive) | 28.5 µM (inactive) | 16.6 µM (inactive) | 
